Assay results: ChEMBL document CHEMBL1136919, “Synthesis and P2Y receptor activity of nucleoside 5'-phosphonate derivatives” (Bioorg Med Chem Lett, 2009)
Values belong to the compound of their own block, whether it stands above or below them.

Key:
Type in all cases: functional, cell-based
P2Y purinoceptor 6 [1] = target: T1, P2Y purinoceptor 6 (Homo sapiens, UniProt Q15077); assay: Agonist activity at human P2Y6 receptor expressed in human 1321N1 cells coexpressing phospholipase C-activating G protein assessed as inositol phosphate production at 10 uM by scintillation proximity assay
T1 sequence (Q15077 whole entry): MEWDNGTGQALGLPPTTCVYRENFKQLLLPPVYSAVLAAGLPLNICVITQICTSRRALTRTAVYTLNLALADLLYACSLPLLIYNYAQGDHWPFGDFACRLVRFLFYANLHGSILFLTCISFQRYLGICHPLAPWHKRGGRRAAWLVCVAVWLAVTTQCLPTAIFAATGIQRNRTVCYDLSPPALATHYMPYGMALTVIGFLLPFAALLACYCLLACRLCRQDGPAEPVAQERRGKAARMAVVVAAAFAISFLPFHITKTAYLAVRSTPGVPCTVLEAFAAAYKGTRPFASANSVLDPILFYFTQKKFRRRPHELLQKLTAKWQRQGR

P2Y purinoceptor 2 [2] = target: T2, P2Y purinoceptor 2 (Homo sapiens, UniProt P41231); assay: Agonist activity at human P2Y2 receptor expressed in human 1321N1 cells coexpressing phospholipase C-activating G protein assessed as inositol phosphate production by scintillation proximity assay
T2 sequence (P41231 whole entry): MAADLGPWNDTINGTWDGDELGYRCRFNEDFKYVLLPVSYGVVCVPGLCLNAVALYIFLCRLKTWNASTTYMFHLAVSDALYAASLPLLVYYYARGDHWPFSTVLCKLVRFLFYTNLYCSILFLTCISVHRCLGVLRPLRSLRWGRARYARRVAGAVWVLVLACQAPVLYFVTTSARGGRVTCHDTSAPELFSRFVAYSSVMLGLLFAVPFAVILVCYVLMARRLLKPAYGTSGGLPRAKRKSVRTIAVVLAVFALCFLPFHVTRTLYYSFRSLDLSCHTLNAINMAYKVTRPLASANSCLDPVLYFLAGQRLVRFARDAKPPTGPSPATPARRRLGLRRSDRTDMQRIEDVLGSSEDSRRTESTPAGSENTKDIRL

P2Y purinoceptor 2 [3] = target: T2, P2Y purinoceptor 2; assay: Agonist activity at human P2Y2 receptor expressed in human 1321N1 cells coexpressing phospholipase C-activating G protein assessed as inositol phosphate production by scintillation proximity assay relative to UTP
P2Y purinoceptor 6 [4] = target: T1, P2Y purinoceptor 6; assay: Agonist activity at human P2Y6 receptor expressed in human 1321N1 cells coexpressing phospholipase C-activating G protein assessed as inositol phosphate production by scintillation proximity assay
P2Y purinoceptor 2 [5] = target: T2, P2Y purinoceptor 2; assay: Agonist activity at human P2Y2 receptor expressed in human 1321N1 cells coexpressing phospholipase C-activating G protein assessed as inositol phosphate production at 10 uM by scintillation proximity assay
[6] = target: P2Y purinoceptor 4 (Homo sapiens) (UniProt P51582); assay: Agonist activity at human P2Y4 receptor expressed in human 1321N1 cells coexpressing phospholipase C-activating G protein assessed as inositol phosphate production at 10 uM by scintillation proximity assay
Chain of P2Y purinoceptor 4 (Homo sapiens) (P51582 whole entry): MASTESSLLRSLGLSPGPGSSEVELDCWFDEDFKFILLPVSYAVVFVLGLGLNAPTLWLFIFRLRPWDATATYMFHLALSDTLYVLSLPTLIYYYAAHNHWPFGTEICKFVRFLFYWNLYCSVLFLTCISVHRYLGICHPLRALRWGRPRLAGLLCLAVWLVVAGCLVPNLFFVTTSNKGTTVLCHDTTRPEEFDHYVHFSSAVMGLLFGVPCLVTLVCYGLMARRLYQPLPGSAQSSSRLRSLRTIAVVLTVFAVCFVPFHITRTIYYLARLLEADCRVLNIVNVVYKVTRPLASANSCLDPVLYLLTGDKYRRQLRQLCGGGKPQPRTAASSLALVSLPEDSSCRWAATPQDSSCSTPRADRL

- EC50 (P2Y purinoceptor 6 [1]): > 10000 nM
SMILES: O=c1ccn([C@@H]2O[C@H](COP(=O)(O)OP(=O)(O)OP(=O)(O)O)[C@@H](O)[C@H]2O)c(=O)[nH]1

- EC50 (P2Y purinoceptor 2 [2]): 1600 nM
- Activity (P2Y purinoceptor 2 [3]): < 50%
SMILES: O=c1ccn([C@@H]2O[C@H](CCP(=O)(O)O)[C@@H](O)[C@H]2O)c(=O)[nH]1

- EC50 (P2Y purinoceptor 2 [2]): 3400 nM
- EC50 (P2Y purinoceptor 6 [4]): 1900 nM
- Activity (P2Y purinoceptor 2 [3]): 50%
SMILES: O=c1ccn([C@@H]2O[C@H](CP(=O)(O)OP(=O)(O)O)[C@@H](O)[C@H]2O)c(=O)[nH]1

- Emax (P2Y purinoceptor 2 [5]): < 50%
SMILES: O=c1ccn([C@@H]2O[C@H](COP(=O)(O)OP(=O)(O)C[C@H]3O[C@@H](n4ccc(=O)[nH]c4=O)[C@H](O)[C@@H]3O)[C@@H](O)[C@H]2O)c(=O)[nH]1

- EC50 (P2Y purinoceptor 2 [2]): 8600 nM
SMILES: O=c1ccn([C@@H]2O[C@H](CP(=O)(O)OP(=O)(O)OP(=O)(O)O)[C@@H](O)[C@H]2O)c(=O)[nH]1

- EC50 (P2Y purinoceptor 2 [2]): 1400 nM
- Emax [6]: < 50%
SMILES: Nc1ncnc2c1ncn2[C@@H]1O[C@H](CP(=O)(O)OP(=O)(O)OP(=O)(O)O)[C@@H](O)[C@H]1O

- EC50 (P2Y purinoceptor 2 [2]): 1000 nM
- Emax [6]: < 50%
SMILES: O=c1ccn([C@@H]2O[C@H](/C=C/P(=O)(O)OP(=O)(O)OP(=O)(O)O)[C@@H](O)[C@H]2O)c(=O)[nH]1
